Source: PubChem BioAssay AID248 (DTP/NCI, 2004)
Several values for one entry are separate records, joined by “and”; a condition that tells them apart may be missing. Equal entries are not always repeated. Inconclusive results and toxic doses are left out. Rule as the data show it: active = T/C of 150% or more; inactive = T/C below 125%.

System: L1210 leukemia ip in BDF1 mice, survival T/C
Assay: NCI In Vivo Anticancer Drug Screen. Data for tumor model L1210 Leukemia (intraperitoneal) in B6D2F1 (BDF1) mice
Conditions: endpoint: mean survival time, higher = longer survival
In short: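 Tumor was transplanted into mice, which were then dosed with test compound or vehicle alone. Survival was recorded for each group, and the treated figure was expressed relative to the control figure.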

[1] = dose: 25.0 mg/kg/injection, schedule: Q01DX009 (ip), vehicle: saline
[2] = dose: 50.0 mg/kg/injection, schedule: Q01DX009 (ip), vehicle: saline with Tween-80
[3] = dose: 100.0 mg/kg/injection, schedule: Q01DX009 (ip), vehicle: saline with Tween-80
[4] = dose: 50.0 mg/kg/injection, schedule: Q01DX009 (ip), vehicle: saline
[5] = dose: 100.0 mg/kg/injection, schedule: Q01DX009 (ip), vehicle: saline
[6] = dose: 100.0 mg/kg/injection, schedule: Q04DX003 (ip), vehicle: saline
[7] = dose: 200.0 mg/kg/injection, schedule: Q04DX003 (ip), vehicle: saline
[8] = dose: 100.0 mg/kg/injection, schedule: Q01DX009 (ip), vehicle: Klucel (hydroxypropylcellulose) (HPC)
[9] = dose: 100.0 mg/kg/injection, schedule: Q04DX003 (ip), vehicle: Klucel (hydroxypropylcellulose) (HPC)
[10] = dose: 200.0 mg/kg/injection, schedule: Q01DX009 (ip), vehicle: Klucel (hydroxypropylcellulose) (HPC)
[11] = dose: 200.0 mg/kg/injection, schedule: Q04DX003 (ip), vehicle: Klucel (hydroxypropylcellulose) (HPC)
[12] = dose: 400.0 mg/kg/injection, schedule: Q01DX009 (ip), vehicle: Klucel (hydroxypropylcellulose) (HPC)
[13] = dose: 400.0 mg/kg/injection, schedule: Q04DX003 (ip), vehicle: Klucel (hydroxypropylcellulose) (HPC)

Measured: T/C

c1cc[c]([Sn]([c]2ccccc2)([c]2ccccc2)[n]2nnc3ccccc32)cc1
inactive: dose: 6.25 mg/kg/injection, schedule: Q04DX002 (ip), vehicle: saline with Tween-80 96 % of control | dose: 12.5 mg/kg/injection, schedule: Q04DX002 (ip), vehicle: saline with Tween-80 101 % of control | dose: 25.0 mg/kg/injection, schedule: Q04DX002 (ip), vehicle: saline with Tween-80 101 % of control

CC1(C)C2CCC([CH2][Hg][Cl])C1C2 (stereo not given)
inactive: dose: 6.25 mg/kg/injection, schedule: Q01DX009 (ip), vehicle: saline 93 % of control | dose: 6.25 mg/kg/injection, schedule: Q04DX003 (ip), vehicle: other 103 % of control | dose: 12.5 mg/kg/injection, schedule: Q01DX009 (ip), vehicle: saline 91 % of control | dose: 12.5 mg/kg/injection, schedule: Q04DX003 (ip), vehicle: other 103 % of control | dose: 20.0 mg/kg/injection, schedule: Q01DX001 (ip), vehicle: Klucel (hydroxypropylcellulose) (HPC) 102 % of control | [1] 94 % of control | dose: 25.0 mg/kg/injection, schedule: Q04DX003 (ip), vehicle: other 106 % of control

Nc1ccc(/C=C\C(=O)NCc2cccnc2)cc1
inactive: dose: 25.0 mg/kg/injection, schedule: Q01DX009 (ip), vehicle: saline with Tween-80 109 % of control | [2] 102 % of control | [3] 93 % of control and 90 % of control

N#CCc1nn(-c2ccccc2)c(N)c1C#N
inactive: dose: 25.0 mg/kg/injection, schedule: Q01DX001 (ip), vehicle: Klucel (hydroxypropylcellulose) (HPC) 93 % of control | dose: 50.0 mg/kg/injection, schedule: Q01DX001 (ip), vehicle: Klucel (hydroxypropylcellulose) (HPC) 100 % of control | dose: 100.0 mg/kg/injection, schedule: Q01DX001 (ip), vehicle: Klucel (hydroxypropylcellulose) (HPC) 107 % of control and 91 % of control | dose: 150.0 mg/kg/injection, schedule: Q01DX001 (ip), vehicle: Klucel (hydroxypropylcellulose) (HPC) 97 % of control

CCNC(C)C
inactive: [1] 98 % of control | dose: 25.0 mg/kg/injection, schedule: Q04DX003 (ip), vehicle: saline 92 % of control | [4] 93 % of control | dose: 50.0 mg/kg/injection, schedule: Q04DX003 (ip), vehicle: saline 97 % of control | [5] 98 % of control | [6] 95 % of control and 107 % of control

C=CCCCCCCCCC(=O)NCCCN1CCOCC1
inactive: [2] 103 % of control | [3] 103 % of control

C#CC1(OCC2CO2)CCCCC1 (stereo not given)
inactive: [4] 97 % of control | dose: 50.0 mg/kg/injection, schedule: Q04DX003 (ip), vehicle: saline with Tween-80 100 % of control | [5] 117 % of control | dose: 100.0 mg/kg/injection, schedule: Q04DX003 (ip), vehicle: saline with Tween-80 101 % of control | dose: 200.0 mg/kg/injection, schedule: Q01DX009 (ip), vehicle: saline 101 % of control | dose: 200.0 mg/kg/injection, schedule: Q04DX003 (ip), vehicle: saline with Tween-80 103 % of control | dose: 400.0 mg/kg/injection, schedule: Q01DX009 (ip), vehicle: saline 94 % of control | dose: 400.0 mg/kg/injection, schedule: Q04DX003 (ip), vehicle: saline with Tween-80 100 % of control

CCCCCCCCCCCCCCCC(=O)O[C@@]12C[C@@H](C)[C@@]3(O)[C@@H](C=C(CO)C[C@]4(O)C(=O)C(C)=C[C@@H]34)[C@@H]1C2(C)C
inactive: dose: 0.06 mg/kg/injection, schedule: Q01DX009 (ip), vehicle: saline 97 % of control | dose: 0.13 mg/kg/injection, schedule: Q01DX009 (ip), vehicle: saline 107 % of control | dose: 0.25 mg/kg/injection, schedule: Q01DX009 (ip), vehicle: saline 95 % of control | dose: 0.5 mg/kg/injection, schedule: Q01DX009 (ip), vehicle: saline 101 % of control

C=CCN1CCC(C(=O)OC)(c2ccccc2)CC1
inactive: [6] 96 % of control | [7] 103 % of control

CC12CCCCC1CC(=O)CC2 (stereo not given)
inactive: dose: 100.0 mg/kg/injection, schedule: Q04DX002 (ip), vehicle: saline with Tween-80 99 % of control | dose: 200.0 mg/kg/injection, schedule: Q04DX002 (ip), vehicle: saline with Tween-80 86 % of control | dose: 400.0 mg/kg/injection, schedule: Q04DX002 (ip), vehicle: saline with Tween-80 96 % of control

CSc1cccc(/C=C\c2ccc([N+](=O)[O-])cc2)c1
inactive: [8] 101 % of control | [9] 94 % of control | [10] 100 % of control | [11] 94 % of control | [12] 88 % of control | [13] 96 % of control

COc1ccc(/C=C/C(=O)c2ccc(OC)cc2)cc1
inactive: [8] 100 % of control | [9] 102 % of control | [10] 94 % of control | [11] 98 % of control | [12] 92 % of control | [13] 101 % of control

CC(C)(C)C=O
inactive: [6] 102 % of control | [7] 96 % of control | dose: 400.0 mg/kg/injection, schedule: Q04DX003 (ip), vehicle: saline 100 % of control

CC(C)(C(Cl)Cl)S(=O)(=O)O (tested in a mixture with another compound)
inactive: dose: 9.0 mg/kg/injection, schedule: Q01DX001 (ip), vehicle: other 95 % of control | dose: 18.0 mg/kg/injection, schedule: Q01DX001 (ip), vehicle: other 106 % of control | dose: 37.0 mg/kg/injection, schedule: Q01DX001 (ip), vehicle: other 103 % of control | dose: 75.0 mg/kg/injection, schedule: Q01DX001 (ip), vehicle: other 98 % of control | dose: 75.0 mg/kg/injection, schedule: Q01DX009 (ip), vehicle: saline with Tween-80 107 % of control | dose: 75.0 mg/kg/injection, schedule: Q04DX003 (ip), vehicle: other 111 % of control | dose: 150.0 mg/kg/injection, schedule: Q01DX001 (ip), vehicle: other 101 % of control | dose: 150.0 mg/kg/injection, schedule: Q01DX009 (ip), vehicle: saline with Tween-80 105 % of control | dose: 150.0 mg/kg/injection, schedule: Q04DX003 (ip), vehicle: other 118 % of control | dose: 300.0 mg/kg/injection, schedule: Q01DX001 (ip), vehicle: other 113 % of control | dose: 300.0 mg/kg/injection, schedule: Q01DX009 (ip), vehicle: saline with Tween-80 102 % of control | dose: 300.0 mg/kg/injection, schedule: Q04DX003 (ip), vehicle: other 116 % of control

O=c1cc(NCc2ccc(Cl)cc2)[nH]c(=O)[nH]1
inactive: dose: 100.0 mg/kg/injection, schedule: Q01DX001 (ip), vehicle: saline with Tween-80 108 % of control | dose: 200.0 mg/kg/injection, schedule: Q01DX001 (ip), vehicle: saline with Tween-80 95 % of control | dose: 400.0 mg/kg/injection, schedule: Q01DX001 (ip), vehicle: saline with Tween-80 98 % of control

c1ccc2c[s+]ccc2c1
inactive: dose: 100.0 mg/kg/injection, schedule: Q04DX002 (ip), vehicle: saline 90 % of control | dose: 200.0 mg/kg/injection, schedule: Q04DX002 (ip), vehicle: saline 94 % of control | dose: 400.0 mg/kg/injection, schedule: Q04DX002 (ip), vehicle: saline 103 % of control

COc1coc(CO)cc1=O
inactive: [2] 94 % of control | [3] 97 % of control

COC(=O)/C=C(/Oc1cccc([N+](=O)[O-])c1)C(=O)OC
inactive: dose: 75.0 mg/kg/injection, schedule: Q04DX003 (ip), vehicle: saline 105 % of control | dose: 150.0 mg/kg/injection, schedule: Q04DX003 (ip), vehicle: saline 96 % of control | dose: 300.0 mg/kg/injection, schedule: Q04DX003 (ip), vehicle: saline 98 % of control

O=NN1CCC1
inactive: dose: 100.0 mg/kg/injection, schedule: Q01DX001 (ip), vehicle: saline 97 % of control | dose: 200.0 mg/kg/injection, schedule: Q01DX001 (ip), vehicle: saline 93 % of control | dose: 400.0 mg/kg/injection, schedule: Q01DX001 (ip), vehicle: saline 93 % of control

CCOC(=O)C1OC(n2cnc3c(N)ncnc32)C(O)C1O (stereo not given)
inactive: dose: 100.0 mg/kg/injection, schedule: Q01DX005 (ip), vehicle: saline 98 % of control | dose: 200.0 mg/kg/injection, schedule: Q01DX005 (ip), vehicle: saline 97 % of control
